This passage reports IC50 and TEC/Btk results from US20180194762A1 (Pharmacyclics LLC, priority 2017, published 2018).

SMILES strings stand for the structures. Read-outs that look alike come from different tables or passages of the source.

Holding throughout (type): biochemical
The target in assay [1] is T1, TEC (Homo sapiens, UniProt P42680).
T1 sequence (P42680 1-631): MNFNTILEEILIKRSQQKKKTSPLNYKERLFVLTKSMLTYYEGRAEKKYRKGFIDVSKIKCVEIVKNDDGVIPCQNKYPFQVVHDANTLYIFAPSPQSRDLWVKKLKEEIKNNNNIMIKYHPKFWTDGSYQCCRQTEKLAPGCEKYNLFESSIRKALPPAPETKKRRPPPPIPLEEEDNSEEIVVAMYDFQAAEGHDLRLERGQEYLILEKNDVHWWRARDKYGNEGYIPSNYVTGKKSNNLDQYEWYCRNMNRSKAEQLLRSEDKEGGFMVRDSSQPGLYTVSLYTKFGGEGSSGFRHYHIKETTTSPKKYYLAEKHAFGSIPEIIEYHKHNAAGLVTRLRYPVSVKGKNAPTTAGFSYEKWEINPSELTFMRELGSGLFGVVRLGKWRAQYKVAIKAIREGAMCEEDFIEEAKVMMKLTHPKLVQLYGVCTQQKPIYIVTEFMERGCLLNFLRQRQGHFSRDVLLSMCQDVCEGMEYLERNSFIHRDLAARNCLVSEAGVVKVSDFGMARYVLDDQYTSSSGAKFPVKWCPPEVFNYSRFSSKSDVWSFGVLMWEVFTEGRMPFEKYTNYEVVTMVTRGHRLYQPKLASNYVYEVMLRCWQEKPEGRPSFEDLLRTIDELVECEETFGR
Put plainly: Inhibition of a panel of kinases (in vitro HotSpot kinase assay, 33P-ATP, 1 μM ATP). To be noted: for IC50: HotSpot kinase assay, 1 μM ATP; for TEC/Btk: ratio of TEC IC50 to Btk IC50 (selectivity). The essentials: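 Purified kinase enzymes were incubated with an appropriate substrate and 33P-labelled ATP at 1 μM ATP. Inhibition was measured radiometrically from incorporation of the 33P label.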

Assay [2] concerns the target T2, Btk (Homo sapiens, UniProt Q06187).
T2 construct: purified from insect cells as a full-length construct containing a N-terminal 6X-His tag; His6 (N); made in house; host or cells: insect cells (Method C)
Put plainly: Btk in vitro inhibitory activity (one of Method A TR-FRET, Method B electrophoretic mobility shift, Method C radiometric filter binding). The essentials:
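Method A: TR-FRET with 0.5 nM Btk at [ATP]=Km, EDTA-quenched, 665/615 nm ratio; Ki(app) converted to IC50. Method B: 1 nM full-length His6 human BTK, 1 μM FAM peptide, pH 7.5, mobility-shift product/sum ratio, 12-point 4-parameter fit. Method C: radiometric filter binding, 8 nM His-tagged BTK, 0.2 mg/mL poly-Glu-Tyr.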
For orientation: In EMSA bound probe runs differently from free probe, usually more slowly.

For assay [3], the target named is T3, panel of kinases (Homo sapiens, UniProt P51813).
T3 sequence (P51813 1-675): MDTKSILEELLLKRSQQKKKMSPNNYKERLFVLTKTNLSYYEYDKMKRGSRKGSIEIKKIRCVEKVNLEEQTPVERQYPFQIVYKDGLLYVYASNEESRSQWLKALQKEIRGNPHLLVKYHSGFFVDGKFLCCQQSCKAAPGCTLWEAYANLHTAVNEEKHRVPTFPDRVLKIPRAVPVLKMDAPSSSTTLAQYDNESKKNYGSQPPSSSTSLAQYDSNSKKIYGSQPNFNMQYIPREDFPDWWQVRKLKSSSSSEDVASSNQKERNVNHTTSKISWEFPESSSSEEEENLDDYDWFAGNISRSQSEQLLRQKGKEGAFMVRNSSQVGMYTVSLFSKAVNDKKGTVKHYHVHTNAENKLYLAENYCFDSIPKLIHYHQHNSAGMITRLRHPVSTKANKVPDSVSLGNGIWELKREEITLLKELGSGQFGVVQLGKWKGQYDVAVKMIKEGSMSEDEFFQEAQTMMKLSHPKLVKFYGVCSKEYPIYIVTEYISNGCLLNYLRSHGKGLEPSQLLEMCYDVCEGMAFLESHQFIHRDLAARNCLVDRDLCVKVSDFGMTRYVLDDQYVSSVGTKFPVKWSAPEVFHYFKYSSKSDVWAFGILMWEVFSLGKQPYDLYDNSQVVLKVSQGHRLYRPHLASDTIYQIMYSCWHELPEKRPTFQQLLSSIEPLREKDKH
Put plainly: Inhibition of a panel of kinases (in vitro HotSpot kinase assay, 33P-ATP, 1 μM ATP), other kinases. To be noted: BMX wild-type, read-out: BMX-WT IC50. How it is done: Example 63: Inhibition of a Panel of Kinases The degree of inhibition of a panel of kinases is determined using the in vitro HotSpot kinase assay (purified enzymes, ^33P-ATP, an appropriate substrate and 1 μM ATP).

Where [4] appears, read: wild-type Btk, read-out: Btk-WT IC50.
The mark [5] stands for this setting: method is one of A, B or C, not stated which, read-out: IC50 values against Btk.

T2 sequence (Q06187 whole entry): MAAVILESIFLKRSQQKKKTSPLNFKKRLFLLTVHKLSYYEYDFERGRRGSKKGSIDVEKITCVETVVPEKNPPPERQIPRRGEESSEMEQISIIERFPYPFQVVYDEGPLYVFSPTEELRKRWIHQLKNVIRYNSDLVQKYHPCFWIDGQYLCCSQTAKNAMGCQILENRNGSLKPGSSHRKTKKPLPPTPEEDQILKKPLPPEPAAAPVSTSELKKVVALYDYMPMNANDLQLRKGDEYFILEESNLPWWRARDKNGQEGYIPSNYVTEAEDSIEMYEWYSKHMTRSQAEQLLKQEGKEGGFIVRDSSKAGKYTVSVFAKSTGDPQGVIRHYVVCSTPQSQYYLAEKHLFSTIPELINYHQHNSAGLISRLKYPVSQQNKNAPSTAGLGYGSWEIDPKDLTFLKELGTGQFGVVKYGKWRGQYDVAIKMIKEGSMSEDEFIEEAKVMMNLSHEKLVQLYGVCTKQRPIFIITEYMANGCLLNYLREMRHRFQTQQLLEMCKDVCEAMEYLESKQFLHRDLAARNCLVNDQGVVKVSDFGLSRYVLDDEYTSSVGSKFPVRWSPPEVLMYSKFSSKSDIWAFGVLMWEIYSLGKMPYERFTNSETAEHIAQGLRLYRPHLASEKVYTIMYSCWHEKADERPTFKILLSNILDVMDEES

Take `CC1(C)Cc2cc(C(=O)NCc3ccc(-c4ccnc5[nH]nc(N[C@@H]6CCNC6)c45)cc3F)[nH]c2C1` [Example 149, N-{[2-fluoro-4-(3-{[(3R)-pyrrolidin-3-yl]amino}-1H-pyrazolo[3,4-b]pyridin-4-yl)phenyl]methyl}-5,5-dimethyl-1H,4H,5H,6H-cyclopenta[b]pyrrole-2-carboxamide]: the IC50 was greater than 10000 nM in assay [1], 739 nM in assay [2] (setting [4]) and greater than 10000 nM in assay [3]. Moreover, the TEC/Btk in assay [1] is given as greater than 100.
`C[C@@H]1[C@H](Nc2n[nH]c3nccc(-c4ccc(CNC(=O)c5noc(C(C)(C)C)n5)c(F)c4)c23)CCCN1C(=O)N(C)C` [Example 125, (2R,3R)-3-{[4-(4-{[(5-tert-butyl-1,2,4-oxadiaozl-3-yl) formamido]methyl}-3-fluorophenyl)-1H-pyrazolo[3,4-b]pyridin-3-yl]amino}-N,N,2-trimethylpiperidine-1-carboxamide]: the IC50 is greater than 10000 nM in assay [1], 89.3 nM in assay [2] (setting [4]) and greater than 10000 nM in assay [3]. Also, in assay [1], the TEC/Btk is on record as greater than 100.
`CC(=O)N[C@@H]1CCN(c2n[nH]c3nccc(-c4ccc([C@@H](C)NC(=O)c5cc(C(C)(C)O)on5)c(F)c4)c23)C1` [Example 349, N-[(1R)-1-(4-{3-[(3R)-3-acetamidopyrrolidin-1-yl]-1H-pyrazolo[3,4-b]pyridin-4-yl}-2-fluorophenyl)ethyl]-5-(2-hydroxypropan-2-yl)-1,2-oxazole-3-carboxamide]: the IC50 in assay [1] amounted to 1480 nM; in assay [2] (setting [4]), 3.99 nM; in assay [3], 1330 nM.
As for `CN1CC[C@H](Nc2n[nH]c3nccc(-c4ccc(CNC(=O)c5nc(C(C)(C)C)no5)c(F)c4)c23)C1` [Example 166, 3-tert-butyl-N-{[2-fluoro-4-(3-{[(3S)-1-methylpyrrolidin-3-yl]amino}-1H-pyrazolo[3,4-b]pyridin-4-yl)phenyl]methyl}-1,2,4-oxadiazole-5-carboxamide], the IC50 in assay [1] was greater than 10000 nM; in assay [2] (setting [5]) it was less than 10 nM; in assay [2] (setting [4]) it was 3.12 nM; in assay [3], greater than 10000 nM. Moreover, the TEC/Btk in assay [1] is greater than 100.
Consider `CN(C)C(=O)N1CC[C@@H](Nc2n[nH]c3nccc(-c4ccc(CNC(=O)c5nc(C(C)(C)C)no5)c(F)c4)c23)C1` [Example 120, 3-tert-butyl-N-{[4-(3-{[(3R)-1-(dimethylcarbmoyl)pyrrolidin-3-yl]amino}-1H-pyrazolo[3,4-b]pyridin-4-yl)-2-fluorophenyl]methyl}-1,2,4-oxadiazole-5-carboxamide], for which the IC50 in assay [1] was 7120 nM; in assay [2] (setting [5]), less than 10 nM; in assay [2] (setting [4]), 7.38 nM; in assay [3], 5220 nM. For the same compound, the TEC/Btk in assay [1] was determined as 965.
As to `C[C@H]1CC[C@@H](Nc2n[nH]c3nccc(-c4ccc(CNC(=O)c5nc(C(C)(C)C)no5)c(F)c4)c23)CN1C(=O)N1CCOCC1` [Example 409, 3-tert-butyl-N-{[2-fluoro-4-(3-{[(3R,6S)-6-methyl-1-(morpholine-4-carbonyl)piperidin-3-yl]amino}-1H-pyrazolo[3,4-b]pyridin-4-yl)phenyl]methyl}-1,2,4-oxadiazole-5-carboxamide], the IC50 is 177 nM in assay [1], 0.546 nM in assay [2] (setting [4]) and 863 nM in assay [3].
Consider `N[C@@H]1CCN(c2n[nH]c3nccc(-c4ccc(CNC(=O)c5nc6c(s5)CCCC6)c(F)c4)c23)C1` [Example 366, N-[(4-{3-[(3R)-3-aminopyrrolidin-1-yl]-1H-pyrazolo[3,4-b]pyridin-4-yl}-2-fluorophenyl)methyl]-4,5,6,7-tetrahydro-1,3-benzothiazole-2-carboxamide], for which the IC50 in assay [1] was found to be 7070 nM; in assay [2] (setting [4]), 21.9 nM; in assay [3], 1320 nM.
On the same counts, the results for `C=CC(=O)N[C@@H]1CC[C@H](C)N(c2n[nH]c3nccc(-c4ccc(CNC(=O)c5cc(C(C)(C)C)on5)c(F)c4)c23)C1` [Example 323, 5-tert-butyl-N-{[2-fluoro-4-(3-{(2S,5R)-2-methyl-5-[(prop-2-enoyl)amino]piperidin-1-yl}-1H-pyrazolo[3,4-b]pyridin-4-yl)phenyl]methyl}-1,2-oxazole-3-carboxamide] are 734 nM, 7.4 nM and 445 nM.
For the compound `CN(C)C/C=C/C(=O)N1CC[C@@H](Nc2n[nH]c3nccc(-c4ccc(C5(NC(=O)c6noc(C(C)(C)C)n6)CC5)cc4)c23)C1` [Compound 29, (R,E)-5-(tert-butyl)-N-(1-(4-(3-((1-(4-(dimethylamino)but-2-enoyl)pyrrolidin-3-yl)amino)-1H-pyrazolo[3,4-b]pyridin-4-yl)phenyl)cyclopropyl)-1,2,4-oxadiazole-3-carboxamide], the IC50 in assay [1] is 964 nM; in assay [2] (setting [4]) it was 11 nM; in assay [3], 595 nM. Moreover, the TEC/Btk in assay [1] is 88.
In the case of `CC(=O)N[C@@H]1CCN(c2n[nH]c3nccc(-c4ccc(CNC(=O)c5nc6ccccc6o5)c(F)c4)c23)C1` [Example 394, N-[(4-{3-[(3R)-3-acetamidopyrrolidin-1-yl]-1H-pyrazolo[3,4-b]pyridin-4-yl}-2-fluorophenyl)methyl]-1,3-benzoxazole-2-carboxamide], the IC50 was 1890 nM in assay [1], 63.3 nM in assay [2] (setting [4]) and 661 nM in assay [3].
With `C[C@H]1CC[C@@H](Nc2n[nH]c3nccc(-c4ccc(CNC(=O)c5noc(C(C)(C)C)n5)c(F)c4)c23)CN1C(=O)N1CCOCC1` [Example 230, 5-tert-butyl-N-{[2-fluoro-4-(3-{[(3R,6S)-6-methyl-1-(morpholine-4-carbonyl)piperidin-3-yl]amino}-1H-pyrazolo[3,4-b]pyridin-4-yl)phenyl]methyl}-1,2,4-oxadiazole-3-carboxamide], the IC50 in assay [1] turned out to be 472 nM; in assay [2] (setting [4]), 0.412 nM; in assay [3], 856 nM. Also, the TEC/Btk in assay [1] is 1146.
For `C[C@@H](NC(=O)c1nc(C(C)(C)C)no1)c1ccc(-c2ccnc3[nH]nc(N4CCC(N)CC4)c23)cc1F` [Example 188, N-[(1R)-1-{4-[3-(4-aminopiperidin-1-yl)-1H-pyrazolo[3,4-b]pyridin-4-yl]-2-fluorophenyl}ethyl]-3-tert-butyl-1,2,4-oxadiazole-5-carboxamide], the IC50 in assay [1] was determined as 802 nM; in assay [2] (setting [4]) it was 0.267 nM; in assay [3] it was 1520 nM. In addition, the TEC/Btk in assay [1] came to 3004.
As for `CC(C)(C)c1cccc(C(=O)NCc2ccc(-c3ccnc4[nH]nc(N[C@@H]5CCNC5)c34)cc2F)c1` [Example 62, 3-tert-butyl-N-{[2-fluoro-4-(3-{[(3R)-pyrrolidin-3-yl]amino}-1H-pyrazolo[3,4-b]pyridin-4-yl)phenyl]methyl}benzamide], the IC50 was determined as 3340 nM in assay [1], 861 nM in assay [2] (setting [4]) and 2140 nM in assay [3]. The TEC/Btk in assay [1] is recorded as 4.
Take `C=CC(=O)N1CC[C@@H](Nc2n[nH]c3nccc(-c4ccc(CNC(=O)c5ccc6c(c5)OCCO6)c(F)c4)c23)C1` [Example 374, N-{[2-fluoro-4-(3-{[(3R)-1-(prop-2-enoyl)pyrrolidin-3-yl]amino}-1H-pyrazolo[3,4-b]pyridin-4-yl)phenyl]methyl}-2,3-dihydro-1,4-benzodioxine-6-carboxamide]: the values for the IC50 in assay [1], in assay [2] (setting [4]) and in assay [3] were 146 nM, 1.23 nM and 128 nM, respectively.

By IC50 is commonly meant the concentration needed to halve the response being measured.
